What was measured:
[1] = system: late blight on tomato; assay type: in vivo, Plasmopara viticola; conditions: tomato (Hofuku), therapeutic effect, sprayed after inoculation, active ingredient 100 ppm, disease severity 7 days after inoculation
[2] = system: downy mildew (Plasmopara viticola) on grape; conditions: in vivo

Molecule | Control value (%) [1] [%] | Control value (%) [2] [%]
CC(=O)Nc1cccc(CON=C(c2ccccc2)n2nnnc2C)n1 [(11)-4] | 80 | 70
CCC(=O)Nc1cccc(CON=C(c2ccccc2)n2nnnc2C)n1 [(11)-5] | 80 | 70
CCCC(=O)Nc1cccc(CON=C(c2ccccc2)n2nnnc2C)n1 [(11)-6] | 80 | 70
Cc1nnnn1C(=NOCc1cccc(NC(=O)C(C)C)n1)c1ccccc1 [(11)-7] | 100 | 100
CCCCC(=O)Nc1cccc(CON=C(c2ccccc2)n2nnnc2C)n1 [(11)-8] | 100 | 100
Cc1nnnn1C(=NOCc1cccc(NC(=O)C(C)(C)C)n1)c1ccccc1 [(11)-11] | 80 | 70
CCCCCC(=O)Nc1cccc(CON=C(c2ccccc2)n2nnnc2C)n1 [(11)-12, (Z)-(5-methyltetrazol-1-yl)phenylmethanoneoxime 0-(6-(hexanoylamino)pyridin-2-yl)methyloxime] | 100 | 100
Cc1nnnn1C(=NOCc1cccc(NC(=O)C2CC2)n1)c1ccccc1 [(11)-21] | 90 | 70
CCCC(=O)Nc1nc(CON=C(c2ccccc2)n2nnnc2C)cs1 [(12)-6] | 100 | 80
Cc1nnnn1C(=NOCc1csc(NC(=O)C(C)C)n1)c1ccccc1 [(12)-7] | 100 | 90
CCCCCC(=O)Nc1nc(CON=C(c2ccccc2)n2nnnc2C)cs1 [(12)-12, (Z)-(5-methyltetrazol-1-yl)phenylmethanoneoxime 0-(2-(n-hexanoylamino)thiazol-4-yl)methyloxime] | 100 | 90
CCCCCCC(=O)Nc1nc(CON=C(c2ccccc2)n2nnnc2C)cs1 [(12)-18] | 100 | 90
CCCCOC(=O)Nc1cccc(CON=C(c2ccccc2)n2nnnc2C)n1 [(13)-5] | 90 | 70
Cc1nnnn1C(=NOCc1cccc(NC(=O)OC(C)(C)C)n1)c1ccccc1 [(13)-8] | 100 | 90
CCCCCOC(=O)Nc1cccc(CON=C(c2ccccc2)n2nnnc2C)n1 [(13)-9] | 100 | 100
CCCCCCOC(=O)Nc1cccc(CON=C(c2ccccc2)n2nnnc2C)n1 [(13)-15] | 90 | 80
Cc1nnnn1C(=NOCc1cccc(NC(=O)OC2CCCC2)n1)c1ccccc1 [(13)-21] | 100 | 80
Cc1nnnn1C(=NOCc1cccc(NC(=O)OC2CCCCC2)n1)c1ccccc1 [(13)-22] | 100 | 100
CCCCOC(=O)Nc1nc(CON=C(c2ccccc2)n2nnnc2C)cs1 [(14)-5] | 80 | 70

Molecule | Control value (%) [1] [%] | Control value (%) [2] [%]
Cc1nnnn1C(=NOCc1csc(NC(=O)c2ccccc2)n1)c1ccccc1 [(16)-3] | 80 | 70
CCCC(=O)Nc1cccc(CON=C(c2ccc(Cl)cc2)n2nnnc2C)n1 [(17)-1] | 100 | 100
CCCC(=O)Nc1nc(CON=C(c2ccc(Cl)cc2)n2nnnc2C)cs1 [(18)-1] | 100 | 100
Cc1nnnn1C(=NOCc1cccc(NC(=O)OC(C)(C)C)n1)c1cccc(F)c1 [(19)-1] | 100 | 100
CCCCOC(=O)Nc1cccc(CON=C(c2cccc(F)c2)n2nnnc2C)n1 [(19)-11] | 90 | 80
CCCCOC(=O)Nc1cccc(CON=C(c2ccc(F)cc2)n2nnnc2C)n1 [(19)-12] | 100 | 90
CCCCOC(=O)Nc1cccc(CON=C(c2cccc(Cl)c2)n2nnnc2C)n1 [(19)-13] | 100 | 100
CCCCOC(=O)Nc1cccc(CON=C(c2ccc(Cl)cc2)n2nnnc2C)n1 [(19)-14] | 100 | 80
CCCCOC(=O)Nc1cccc(CON=C(c2ccc(C)cc2)n2nnnc2C)n1 [(19)-16] | 100 | 100
CCCCOC(=O)Nc1cccc(CON=C(c2ccc(OC)cc2)n2nnnc2C)n1 [(19)-23] | 80 | 70
CCCCOC(=O)Nc1cccc(CON=C(c2ccc(C#N)cc2)n2nnnc2C)n1 [(19)-25] | 90 | 90
CCCCCOC(=O)Nc1cccc(CON=C(c2ccc(S(C)(=O)=O)cc2)n2nnnc2C)n1 [(19)-28] | 100 | 100
CCCCOC(=O)Nc1cccc(CON=C(c2ccc([N+](=O)[O-])cc2)n2nnnc2C)n1 [(19)-29] | 100 | 80
CCCCOC(=O)Nc1cccc(CON=C(c2ccc(C(F)(F)F)cc2)n2nnnc2C)n1 [(19)-31] | 100 | 90
CCCCOC(=O)Nc1cccc(CON=C(c2ccccc2)n2nnnc2C)n1 [(19)-33] | 100 | 100
CCCCOC(=O)Nc1cccc(CON=C(c2ccc(CC)cc2)n2nnnc2C)n1 [(19)-34] | 100 | 80
CCCCOC(=O)Nc1cccc(CON=C(c2ccc(C(C)(C)C)cc2)n2nnnc2C)n1 [(19)-35] | 80 | 70
Cc1nnnn1C(=NOCc1csc(NC(=O)OC(C)(C)C)n1)c1cccc(F)c1 [(20)-1] | 80 | 70
(Z)-(1-methyltetrazol-5-yl)phenylmethanoneoxime 0-(2-(n-pentyloxycarbonylamino)thiazol-4-yl)methyloxime [(4)-9] | 100 | 80

Source: patent publication US7183299B2 (priority 2001, dated 2007)
